Experimental data taken from publication PMC6792352, “Limited Chemical Structural Diversity Found to Modulate Thyroid Hormone Receptor in the Tox21 Chemical Library” (Environmental Health Perspectives, 2019).
Where two headings read alike, the source gives them in different places.

Legend:
[1] = test system: thyroid hormone receptor (endogenous TRα and TRβ); assay: GH3-TRE-Ag primary qHTS, luciferase reporter, agonist mode (TOX21_TR_LUC_GH3_Agonist, aeid 803); type: cell-based, rat; details: for GH3-TRE-Ag AC50 hitc: hit call from tcpl
[2] = test system: Tox21 cell viability assays (different cell types); assay: Global cytotoxicity: eighteen Tox21 cell viability assays; type: cell-based
[3] = test system: thyroid hormone receptor (TR); assay: Classification of TR actives across characterization assays (TR-Ag / RXR-Ag; TR model binary); set-up: key to Categorization Code: FP, false positive; details: for Categorization Code: TR agonist characterization; for Classification: TR-Ag = TR agonist, RXR-Ag = RXR agonist
Text: Active rate comparison between receptors. […]; [Kleinstreuer et al. 2017]). We first removed chemicals classified as pharmaceuticals because these sets of chemicals are biased toward drugs targeting estrogen receptors and androgen receptors. […]. For TR, we cross-referenced these same chemicals for testing against TR and used candidate chemicals in Tables 2 and 3 to define active rates.
Complete results from both GH3-TRE qHTS agonist, antagonist, and viability mode for the 8,305 compounds are provided in Excel Table S2. […]. […]. Together with some potential false negatives, these chemicals, totaling 84 in all, were screened for activity in a series of assays for confirmation in the GH3-TRE-Ag assay; specificity screening in the TRβ-UAS-bla HEK 293T and RXRα-UAS-bla HEK 293T mammalian one-hybrid assays; viability assays for the HEK293T parental cell line; and orthogonal screening in two TR:coactivator recruitment assays, TRa-coa and TRb-coa. […].

[4] = test system: thyroid hormone receptor (endogenous TRα and TRβ); assay: GH3-TRE-Ag-Followup confirmation (TOX21_TR_LUC_GH3_Agonist_Followup, aeid 2226); type: cell-based, rat; details: for AC50: read-out: GH3-TRE-Ag-Followup AC50; for GH3-TRE-Ag-Followup hitc: hit call from tcpl
[5] = target: T1, human RXRα (Homo sapiens, UniProt P19793); assay: RXRa-bla-Ag mammalian one-hybrid beta-lactamase assay (TOX21_TR_RXR_BLA_Agonist_Followup_ratio, aeid 2253); type: cell-based; details: for tr-followup-rxr-bla-agonist-1 hitc: hit call from tcpl; for Emax: read-out: EMax (% of Control) tr-followup-rxr-bla-agonist-1
T1 construct: host or cells: GeneBLAzer UAS-bla HEK 293T
T1 sequence (P19793 227-458 limits assumed): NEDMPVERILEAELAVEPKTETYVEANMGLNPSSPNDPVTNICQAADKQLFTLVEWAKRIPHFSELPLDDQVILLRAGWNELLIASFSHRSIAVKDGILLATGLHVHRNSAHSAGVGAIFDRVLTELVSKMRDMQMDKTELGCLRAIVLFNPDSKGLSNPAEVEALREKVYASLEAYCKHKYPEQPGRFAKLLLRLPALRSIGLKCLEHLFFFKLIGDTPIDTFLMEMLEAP

[6] = test system: GH3-TRE-Luc cell line
[7] = target: T2, TRα ligand-binding domain (Homo sapiens, UniProt P10827); assay: TRa-coa LanthaScreen TR-FRET coactivator (SRC-2 peptide) recruitment, agonist (TOX21_TRA_COA_Agonist_Followup_ratio, aeid 2230); type: biochemical; details: for TRa-coa hitc: hit call from tcpl; for Emax: read-out: EMax (% of Control) tra-coa-agonist-followup-1
T2 construct: the receptor LBDs expressed as glutathione S-transferase (GST) fusion proteins; purchased

[8] = target: T3, human TRβ ligand-binding domain (Homo sapiens, UniProt P10828); assay: TRb-coa LanthaScreen TR-FRET coactivator (SRC-2 peptide) recruitment, agonist (TOX21_TRB_COA_Agonist_Followup_ratio, aeid 2244); type: biochemical; set-up: host or cells: GeneBLAzer UAS-bla HEK 293T; details: for AC50 / TRb-coa hitc: agonist; for AC50: read-out: TRb-coa AC50; for TRb-coa hitc: hit call from tcpl; for Emax: read-out: EMax (% of Control) trb-coa-agonist-followup-1
T3 sequence (P10828 217-461 limits assumed): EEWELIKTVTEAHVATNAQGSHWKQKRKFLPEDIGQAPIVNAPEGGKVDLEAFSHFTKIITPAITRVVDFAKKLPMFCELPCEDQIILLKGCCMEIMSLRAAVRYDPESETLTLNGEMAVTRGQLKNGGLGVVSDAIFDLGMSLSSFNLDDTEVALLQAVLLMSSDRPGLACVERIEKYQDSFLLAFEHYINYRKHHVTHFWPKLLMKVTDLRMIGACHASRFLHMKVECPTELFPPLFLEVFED

[9] = in vitro; details: rat, gh3-tre-luc cells
[10] = target: T3, human TRβ ligand-binding domain; assay: TRb-bla agonist mammalian one-hybrid beta-lactamase assay (TOX21_TRB_BLA_Agonist_Followup_ratio, aeid 2236); type: cell-based; set-up: host or cells: GeneBLAzer UAS-bla HEK 293T; details: for AC50 / TRb-bla hitc: agonist; for AC50: read-out: TRb-bla AC50; for TRb-bla hitc: hit call from tcpl; for Emax: read-out: EMax (% of Control) trb-bla-agonist-followup-1
[11] = test system: GH3-TRE-Luc cell line; assay: GH3-TRE-Via cell viability, CellTiter-Fluor (TOX21_TR_LUC_GH3_Antagonist_viability, aeid 805); details: for TR_LUC_GH3_Antagonist_viability hitc: hit call from tcpl
[12] = # active of 18 total Tox21 viability assays
[13] = read-out: tr-followup-rxr-bla-agonist-1 AC50
[14] = agonist, read-out: TRa-coa AC50
[15] = Rattus norvegicus, read-out: TR_LUC_GH3_Antagonist_viability AC50 (uM)
[16] = median over Tox21 viability assays
[17] = read-out: TR_LUC_GH3_Antagonist_viability AC50

T2 sequence (P10827 163-410 isoform P10827-2 limits assumed, other chains not shown): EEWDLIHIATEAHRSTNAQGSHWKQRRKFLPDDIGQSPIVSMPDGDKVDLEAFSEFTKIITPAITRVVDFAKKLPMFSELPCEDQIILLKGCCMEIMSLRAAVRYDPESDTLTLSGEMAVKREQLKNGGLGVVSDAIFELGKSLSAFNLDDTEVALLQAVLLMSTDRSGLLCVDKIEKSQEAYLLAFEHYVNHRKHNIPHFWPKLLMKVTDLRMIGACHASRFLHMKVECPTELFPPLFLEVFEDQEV

Structure (SMILES) | EMax (% of Control) gh3-tre-agonist [1] | GH3-TRE-Ag AC50 hitc [1] | GLOBAL CYTOTOXICITY cytotox.median [2] | GLOBAL CYTOTOXICITY cytotox.number_Active [2] | Categorization Code [3] | EMax (% of Control) gh3-tre-agonist-followup-1_agonist [4] | GH3-TRE-Ag-Followup hitc [4] | EMax (% of Control) tr-followup-rxr-bla-agonist-1 [5] | tr-followup-rxr-bla-agonist-1 hitc [5] | TR_LUC_GH3_Antagonist_viability hitc [6] | EMax (% of Control) tra-coa-agonist-followup-1 [7] | TRa-coa hitc ([7]; agonist) | AC50 [8] [µM] | TRb-coa hitc [8] | AC50 [4] [µM] | Emax [5] [%] | AC50 [5, 13] [µM] | AC50 [7, 14] [µM] | AC50 [10] [µM] | TRb-bla hitc [10] | also measured
Cc1cc(NC(=O)C(=O)O)cc(C)c1Oc1ccc(O)c2c1CCC2 [CP-634384, reference compound] | 129.5 % of Control | 1 | >92 | 0 | TR-Ag | 103.7 % of Control | 1 | 54.9 % of Control | 1 | 0 | 158.4 % of Control | 1 |  |  |  |  |  |  |  |  | AC50 [2]: > 92 µM; Classification [3]: TR-Ag; AC50 ([4]; confirmation, agonist mode): 0.018 µM; AC50 ([5]; HEK 293T one-hybrid, agonist mode, inactive set to 1,000, read-out: RXRa-bla-Ag AC50): 44.3 µM; AC50 [6]: > 92 µM; AC50 ([7]; cell-free coactivator recruitment, read-out: TRa-coa-Ag AC50): 0.0029 µM
C=C(NC(=O)C(=C)NC(=O)c1csc(C2=N[C@@H]3c4csc(n4)[C@H]4NC(=O)c5csc(n5)[C@H]([C@](C)(O)[C@@H](C)O)NC(=O)[C@H]5CSC(=N5)/C(=C/C)NC(=O)[C@H]([C@@H](C)O)NC(=O)c5csc(n5)[C@]3(CC2)NC(=O)[C@H](C)NC(=O)C(=C)NC(=O)[C@H](C)NC(=O)[C@H]([C@@H](C)CC)N[C@@H]2C=Cc3c([C@H](C)O)cc(nc3[C@H]2O)C(=O)O[C@@H]4C)n1)C(N)=O [Thiostrepton] | 15.2 % of Control | 0 | >92 |  | About 20% efficacy in RXR and TR; hitc is inconsistent; promiscious NR activity | 28.2 % of Control | 1 |  | 0 |  |  | 0 | > 92 | 0 | 5.47 | 17.2 | > 92 | > 92 | > 92 | 0 | Emax [8]: -0.224%; GLOBAL CYTOTOXICITY cytotox.number_Active [2, 12]: 0; CC50 at 24 h ([9]; AC50 (uM) modified / 1000): 6.56 µM; Emax [7]: -0.6%; Emax [10]: 4.1%; AC50 [11, 15]: > 92 µM; TR_LUC_GH3_Antagonist_viability hitc [11]: 0
Nc1ccc(S(=O)(=O)Nc2nccs2)cc1 [Sulfathiazole] | 1.9 % of Control | 0 | >92 | 0 | FP | 19.5 % of Control | 0 |  | 0 |  |  |  |  |  |  | 30 | > 92 |  |  |  | AC50 ([1]; read-out: GH3-TRE-Ag AC50): > 92 µM; CC50 at 24 h ([9]; AC50 (uM) modified / 1000): > 50 µM; TR_LUC_GH3_Antagonist_viability hitc ([6]; rat, 24 h): 0; AC50 [11, 15]: > 92 µM
N[C@@H](Cc1cc(I)c(Oc2ccc(O)c(I)c2)c(I)c1)C(=O)[O-].[Na+] [3,3ʹ,5-Triiodo-L-thyronine sodium salt, reference compound] |  | 1 | >92 | 0 | TR-Ag | 96.5 % of Control | 1 |  |  | 0 |  |  |  |  |  |  |  |  |  |  | TR_LUC_GH3_Agonist_EMAX (% Control) ([1]; Table S5): 108.5 % Control; AC50 [2]: > 92 µM; Classification [3]: TR-Ag; AC50 [6]: > 92 µM
CCCCc1oc2ccccc2c1C(=O)c1cc(I)c(OCCN(CC)CC)c(I)c1 [amiodarone] |  |  |  |  |  |  |  |  |  |  |  |  |  |  |  |  |  |  |  |  | cytotoxicity in GH3 viability assay [6]: cytotoxic at the concentrations at which it inhibits TR
C[C@H](CCC(=O)NCC(=O)O)[C@H]1CC[C@H]2[C@@H]3[C@H](O)C[C@@H]4C[C@H](O)CC[C@]4(C)[C@H]3C[C@H](O)[C@]12C [glycocholic acid] | 27.2 % of Control | 1 |  | 0 | Equivocal RXR-Ag | 34.6 % of Control | 0 |  | 0 |  |  | 0 | > 92 | 0 |  | -1.3 | > 92 | > 92 | > 92 | 0 | Emax [8]: -0.225%; activity in GH3-TRE agonist assay [1]: active; GLOBAL CYTOTOXICITY cytotox.median [2, 16]: >92; TR_LUC_GH3_Antagonist_viability hitc ([6]; rat, 24 h): 0; Emax [7]: -0.137%; Emax [10]: 14.8%; AC50 [11, 15]: > 92 µM
CC(C)(c1ccccc1)c1ccc(O)c(C(C)(C)c2ccccc2)c1 [2,4-Bis(1-methyl-1-phenylethyl)phenol] | 22.3 % of Control | 0 |  |  | FP | 33.5 % of Control | 1 | 12.1 % of Control | 0 |  | 9.2 % of Control | 0 | > 92 | 0 | 5.35 |  | > 92 | > 92 | > 92 | 0 | EMax (% of Control) trb-coa-agonist-followup-1 [8]: 13.4 % of Control; GLOBAL CYTOTOXICITY cytotox.number_Active [2, 12]: 17; GLOBAL CYTOTOXICITY cytotox.median [2, 16]: 24.3; CC50 at 24 h ([9]; AC50 (uM) modified / 1000, Tox21_110001=Tox21_202456, viability, 1 nM T3 present, 24 h): 13.3 µM; CC50 at 24 h ([9]; AC50 (uM) modified / 1000, Tox21_110001=Tox21_300317, viability, 1 nM T3 present, 24 h): 11.2 µM; TR_LUC_GH3_Antagonist_viability hitc [11]: 1; AC50 [11, 17]: 11.2 µM
N[C@@H](Cc1ccc(Oc2cc(I)c(O)c(I)c2)c(I)c1)C(=O)O [3,3',5'-Triiodo-L-thyronine] | 111.6 % of Control | 1 | >92 | 0 | TR-Ag | 87.2 % of Control | 1 | 17.4 % of Control | 0 | 0 | 152.6 % of Control | 1 |  | 1 | 0.537 |  | > 92 |  |  | 1 | EMax (% of Control) trb-coa-agonist-followup-1 [8]: 117.6 % of Control; EMax (% of Control) trb-bla-agonist-followup-1 [10]: 93.8 % of Control; AC50 [11, 17]: > 92 µM
